Values belong to the molecule of their own block, whether it stands above or below them. Bridge positions count the residues as written; N and C are the ends. Square brackets hold non-standard residues; d marks the D form. Ends that are not written are not given here. Peptide text beside a SMILES is read from it. * marks the point of attachment. FITC = O=C1OC2(c3ccc(O)cc3Oc3cc(O)ccc32)c2ccc(NC(=S)*)cc21; monoethylene glycol = monoethylene glycol moiety; Met(O) = CS(=O)CC[C@H](N)C(=O)O; S5 = C=CCCC[C@](C)(N)C(=O)O; Nle = CCCC[C@H](N)C(=O)O; PEG = not defined here; βAla = NCCC(=O)O
Tests used:
MCF7 cells = test: Confocal fluorescence microscopy for peptide cellular penetration; assay type: in vitro ADME; settings: 5 μM FITC-labeled peptide, 10% FBS-containing RPMI, 8 h, 37 °C
Experimental: MCF7 cells were grown in 8-well chamber slides (Ibidi) and treated with FITC-labeled RFPs (5 μM) in 10% FBS-containing RPMI for 8 h at 37 °C. Cells were washed 5× in PBS, fixed in 2% paraformaldehyde/PBS and stained with DAPI according to the manufacturer’s protocol (Sigma). A coverslip was mounted onto the slide and confocal fluorescence microscopy performed with an Olympus DSU spinning disk confocal microscope (Olympus Corporation of the Americas, Center Valley, PA) with a Hamamatsu model C9100 EM-CCD camera (Hamamatsu Photonics, Skokie, IL) run by SlideBook v5.0 software (Intelligent Imaging Innovations, Denver, CO). Post-acquisition processing (multi-channel overlay) was performed using ImageJ software (NIH). Results are representative of images taken from three fields across the same well in at least two biological replicates.

RAB25 = molecular target: T1, RAB25 (Homo sapiens, UniProt P57735); test: Fluorescence polarization binding of FITC-labeled RFP peptides to RAB25; settings: FP, 30 min room temperature; for Kd: 10 nM FITC-ligand, GST-RAB25, FP buffer pH 8.0 with 10 μM GTP, mean with 95% C.I., triplicate, read-out: apparent Kd (95% C.I.) RAB25; for binding to RAB25 (in words): 25 nM FITC-RFP peptide
T1 construct: GST-RAB25 (1–180) in pET41 Ek/LIC; made in house; host or cells: E. coli BL21
T1 sequence (P57735 1-180): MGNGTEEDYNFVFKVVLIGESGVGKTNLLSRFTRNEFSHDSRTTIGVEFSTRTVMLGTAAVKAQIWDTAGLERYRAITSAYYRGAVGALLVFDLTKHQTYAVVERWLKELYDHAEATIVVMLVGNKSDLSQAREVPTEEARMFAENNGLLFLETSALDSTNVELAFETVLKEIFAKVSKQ
Experimental: (§1) Fluorescence polarization assays were performed with for GST-RAB25 and GST-RAB11a to quantify binding to FITC-labeled unmodified and stapled RFP peptides. Initial fluorescence polarization measurements for RFP1−RFP13 were made by incubating FITC-RFP peptides (25 nM) with threefold dilutions of a given protein in FP buffer, consisting of 20 mM Tris pH 8.0, 150 mM NaCl, 5 mM MgCl2, 2 mM DTT, 10 μM GTP and 2% glycerol. Dilutions and incubations were performed in 96-well, black flat-bottom plates (Nunc) to a total volume of 100 μL, and equilibrated at room temperature for 30 min. Polarization was measured on a Spetramax-M5 multi-label plate reader (Molecular Devices) with λ ex = 485 nm and λ em = 525 nm. Polarization values were determined using the equation: P = (V − H)/(V + H), where P denotes polarization, V denotes vertical emission intensity and H represents horizontal emission intensity. Fraction bound was calculated using the equilibrium maximum polarization value obtained for a given protein among ligands, to which background-subtracted fluorescence polarization values were internally normalized. Fluorescence polarization measurements for FITC-RFP14, 24, 26, 31, and 32 were performed as detailed above with the exception that 10 nM FITC-ligand was used.

[1] = Circular dichroism spectroscopy and thermal denaturation; assay type: physicochemical; settings: 50 μM peptide in deionized water, 190–260 nm, room temperature
Experimental: Circular dichroism spectroscopy experiments were performed on a Jasco J-170 using a quartz cuvette (path length: 0.1 cm). Peptides were dissolved to 50 μM in deionized water and CD measurements were recorded at one nm increments between 190 and 260 nm, at room temperature. Thermal denaturation experiments were performed by recording CD absorbance at 222 nm at one-degree increments from 10 to 90 °C using a thermostat-controlled cuvette chamber. Raw denaturation data were fit to sigmoidal curves with Prizm 5 software, and the half-maximal temperature was reported as the peptide T m.

[2] = molecular target: T2, RAB11a (activated Q70L mutant) (Homo sapiens, UniProt P62491, Q70L); test: Fluorescence polarization binding of FITC-labeled RFP peptides to RAB11a; settings: FP, 30 min room temperature; for binding to RAB11a (in words): 25 nM FITC-RFP peptide
T2 construct: GST-RAB11a (1–173, Q70L mutant) in pGEX5x-1; made in house; host or cells: E. coli BL21
T2 sequence (P62491 1-173 Q70L): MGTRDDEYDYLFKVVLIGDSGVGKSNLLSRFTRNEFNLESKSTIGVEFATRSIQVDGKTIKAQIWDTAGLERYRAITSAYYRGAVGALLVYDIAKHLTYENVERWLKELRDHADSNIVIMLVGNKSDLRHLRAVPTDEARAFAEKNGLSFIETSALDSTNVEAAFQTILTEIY
Experimental: as §1

[3] = molecular target: T3, H6-RAB25:bio-RFP14 complex (Homo sapiens, UniProt P57735); test: ALPHAscreen competitive inhibition of RAB25:RFP14 complex formation; assay type: binding; settings: H6-RAB25 0.2 μM and bio-RFP14 0.2 μM, mean with 95% C.I., triplicate
T3 construct: His6-RAB25 (1–180) in pET28; made in house; host or cells: E. coli BL21
T3 sequence (P57735 1-180): T1 sequence (P57735 1-180)

[4] = tested on: all cell lines tested (HEY, MCF7, MDA-MB231); test: Toxicity seen in wound healing studies; assay type: cell-based; settings: 10 μM
Experimental: Cells were seeded at a density of 5000–7000 cells for HEY and MDA-MB231 or 15,000 cells for MCF7 on each side of an Ibidi culture insert (Ibidi, Munich, Germany), with a 500 μm separation between each side of the well, and allowed to grow for 24 h to attain a compact monolayer. Cells were pretreated with, or without, RFP peptides (10 μM) or DMSO control for 12 h before removal of the insert, and following removal of the insert cells were incubated in RFP-containing media or DMSO control for the duration of wound closure. Cells were photographed using a Life Technologies EVOS XL Core imaging system 4× or a Nikon DS camera connected to a Nikon Eclipse Ti microscope objective at insert removal (0 h) and when wound closure was complete under control conditions. Experiments were performed in duplicate and a minimum of four fields of the injury were photographed and used for quantification.

[5] = molecular target: T4, GST-RAB11a (1–173, Q70L mutant) (UniProt P62491 1-173, Q70L); test: fluorescence polarisation; FITC-peptide 25 nM with threefold dilutions of GST-RAB protein; 20 mM Tris pH 8.0, 150 mM NaCl, 5 mM MgCl2, 2 mM DTT, 10 μM GTP, 2% glycerol; room temperature, 30 min; apparent Kd; settings: both partners purified
T4 construct: vector pGEX5x-1; 10 μM GTP in the assay buffer; source: BL21 cells, purified (glutathione sepharose, Superdex 75 gel filtration)
T4 sequence (looked up): T2 sequence (P62491 1-173 Q70L)

His6-RAB25 (1–180) [6] = molecular target: T5, His6-RAB25 (1–180) (UniProt P57735 1-180); test: competition with bio-RFP14 (ALPHAscreen)
T5 chain: T1 sequence (P57735 1-180)

His6-RAB25 (1–180) [7] = molecular target: T6, His6-RAB25 (1–180) (UniProt P57735 1-180); test: AlphaScreen or HTRF; competition: soluble peptide or protein at varied concentration with biotin-RFP14 and H6-RAB25 (0.2 μM each); streptavidin donor and Ni2+-NTA acceptor beads; FP buffer with 0.1% BSA; room temperature; settings: both partners purified
T6 construct: RAB25, residues 1-180; vector pET28; also called H6-RAB25; His6-labeled RAB25; source: BL21 cells, purified (Ni-NTA, Superdex 75 gel filtration)
T6 sequence (looked up): T1 sequence (P57735 1-180)

cellular uptake and distribution (MCF7 cells; listed as FITC-RFP14): comparable cellular uptake | Kd (RAB25): 0.04 µM
Molecule: CCCC[C@@H]1NC(=O)[C@H](C(C)C)NC(=O)[C@@](C)(NC(=O)[C@@H](NC(=O)[C@H](CC(C)C)NC(=O)[C@H](CC(C)C)NC(=O)[C@H](CCCNC(=N)N)NC(=O)[C@H](CC(=O)O)NC(=O)[C@@H](NC(=O)[C@H](Cc2ccc(O)cc2)NC(=O)[C@H](CC(N)=O)NC(=O)[C@H](CCC(=O)O)NC(=O)[C@H](CC(C)C)NC(=O)[C@H](CCC(=O)O)NC(=O)[C@H](CCCNC(=N)N)NC(=O)[C@@H](NC(=O)[C@H](CCC(N)=O)NC(=O)[C@H](CCCNC(=N)N)NC(=O)CCNC(=O)[C@@H](N)Cc2c[nH]c3ccccc23)C(C)C)[C@@H](C)CC)C(C)C)CCCC=CCCC[C@@](C)(C(=O)N[C@H](C(=O)N2CCC[C@H]2C(=O)N[C@@H](CC(N)=O)C(=O)N[C@H](C(=O)N[C@@H](CC(C)C)C(=O)N[C@@H](CCCNC(=N)N)C(=O)N[C@H](C(=O)N2CCC[C@H]2C(=O)N[C@@H](CCCNC(=N)N)C(N)=O)[C@@H](C)CC)[C@@H](C)CC)[C@@H](C)O)NC(=O)[C@H](CCC(=O)O)NC1=O [RFP14] (H-W[βAla]RQVRELENYIDRLLV[S5]V[Nle]E[S5]TPNILRIPR-NH2; staple 18-22)
cellular uptake and distribution (MCF7 cells): significant cellular uptake and distribution throughout the cytosol and nucleus

CD spectrum, secondary structure [1]: β-sheet | binding to RAB25 (in words) (RAB25): micromolar affinities | binding to RAB11a (in words) [2]: micromolar affinities
Molecule: KQEEINFRLQDYIDRIIVAIMETNPSILEVK-NH2 (C-terminus assumed) [RFP3]

binding to RAB25 (in words) (RAB25): micromolar affinities | binding to RAB11a (in words) [2]: micromolar affinities
Molecule: RFP4: unmodified FIP4 peptide ({FITC-PEG}-EQEEINFRLRQYMDKIILAILDHNPSILEIKH; reading uncertain)
CD spectrum, secondary structure [1]: partially disordered peptide folds

Kd (RAB25): > 5 µM | IC50 [3]: 3.3 µM | Kd ([2]; 10 nM FITC-ligand, GST-RAB11a (1–173, Q70L), FP buffer pH 8.0 with 10 μM GTP, mean with 95% C.I., triplicate, read-out: apparent Kd (95% C.I.) RAB11a): > 5 µM
Molecule: CC[C@H](C)[C@H](NC(=O)[C@H](CCCNC(=N)N)NC(=O)[C@H](C)NC(=O)[C@H](C)NC(=O)[C@]1(C)CCCC=CCCC[C@](C)(NC(=O)[C@H](CC(N)=O)NC(=O)[C@H](CCC(N)=O)NC(=O)[C@H](CC(C)C)NC(=O)[C@H](CCCNC(=N)N)NC(=O)[C@H](Cc2ccccc2)NC(=O)[C@H](CC(N)=O)NC(=O)[C@@H](NC(=O)[C@H](CCCNC(=N)N)NC(=O)CCNC(=O)[C@@H](N)Cc2c[nH]c3ccccc23)[C@@H](C)CC)C(=O)N[C@@H]([C@@H](C)CC)C(=O)N[C@@H](CC(=O)O)C(=O)N[C@@H](CCCNC(=N)N)C(=O)N1)C(=O)N[C@@H](C)C(=O)N[C@@H](CCC(=O)O)C(=O)N[C@H](C(=O)N[C@@H](CC(N)=O)C(=O)N1CCC[C@H]1C(=O)N[C@@H](CO)C(=O)N[C@H](C(=O)N[C@@H](CC(C)C)C(=O)N[C@@H](CCC(=O)O)C(=O)N[C@H](C(=O)N[C@@H](CCCCN)C(N)=O)C(C)C)[C@@H](C)CC)[C@@H](C)O [RFP31] (H-W[βAla]RINFRLQN[S5]IDR[S5]AARIAETNPSILEVK-NH2; staple 11-15)

Molecule: CCCC[C@H](NC(=O)[C@@H](NC(=O)[C@H](CCCNC(=N)N)NC(=O)[C@@H](NC(=O)[C@@H](NC(=O)[C@]1(C)CCCC=CCCC[C@](C)(NC(=O)[C@H](CC(N)=O)NC(=O)[C@H](CCC(N)=O)NC(=O)[C@H](CC(C)C)NC(=O)[C@H](CCCNC(=N)N)NC(=O)[C@H](Cc2ccccc2)NC(=O)[C@H](CC(N)=O)NC(=O)[C@@H](NC(=O)[C@H](CCCNC(=N)N)NC(=O)CCNC(=O)[C@@H](N)Cc2c[nH]c3ccccc23)[C@@H](C)CC)C(=O)N[C@@H]([C@@H](C)CC)C(=O)N[C@@H](CC(=O)O)C(=O)N[C@@H](CCCNC(=N)N)C(=O)N1)[C@@H](C)CC)C(C)C)[C@@H](C)CC)C(=O)N[C@@H](CCC(=O)O)C(=O)N[C@H](C(=O)N[C@@H](CC(N)=O)C(=O)N1CCC[C@H]1C(=O)N[C@@H](CO)C(=O)N[C@H](C(=O)N[C@@H](CC(C)C)C(=O)N[C@@H](CCCNC(=N)N)C(=O)N[C@H](C(=O)N[C@@H](CCCCN)C(N)=O)C(C)C)[C@@H](C)CC)[C@@H](C)O [RFP26] (H-W[βAla]RINFRLQN[S5]IDR[S5]IVRI[Nle]ETNPSILRVK-NH2; staple 11-15)
toxicity in wound healing studies [4]: considerable toxicity

fold lower affinity than the unoxidised peptide [5]: ~5 fold
B1: RFP5 (peptide)
chain: {FITC-monoethylene glycol}-KQEEINFRLQDYIDRIIVAI[Met(O)]ETNPSILEVK

IC50 (His6-RAB25 (1–180) [6]): > 10 µM | binding result (His6-RAB25 (1–180) [7]): binds
B2: GST-FIP3 (649–756) (domain or fragment, UniProt O75154 649-756, looked up)
chain: MGLQEYHSRARESELEQEVRRLKQDNRNLKEQNEELNGQIITLSIQGAKSLFSTAFSESLAAEISSVSRDELMEAIQKQEEINFRLQDYIDRIIVAIMETNPSILEVK
notes: Rab11-FIP3 (Class-II FIP), residues 649-756; vector pGEX 6P-1; no cleavage of GST is described; also called FIP3 protein (residues 649–756); source: BL21 cells, purified (glutathione sepharose, Superdex 75 gel filtration)
